The numbers were not newly measured in US20230257337A1, “METHOD FOR PRODUCING POLYGYLCEROL ESTERS OF POLYCARBOXYLIC ACIDS ESTERIFIED WITH OXOBUTANOL” (IOI Oleo GmbH, priority 2020, published 2023), which cites them from elsewhere.

The conditions of the data set: even if several grams are taken.

With `CC(O)CC(=O)O` (stereo not shown) [3-hydroxybutyric acid], the duration of ketosis entry is on record as “about three to four”.
